Test results taken from patent publication US20050282743A1, “Molecular interactions in cells” (Arbor Vita Corporation, priority 2001, published 2005).
Ends that are not written are not given here. Peptide text beside a SMILES is read from it. * marks the point of attachment. Biotin = O=C1N[C@H]2[C@H](CS[C@H]2CCCCC(=O)*)N1

How the values were obtained:
Type in all cases: binding
[1] = biological target: T1, PDZ protein (GST-PDZ fusion) (Homo sapiens, UniProt Q8IVF5); assay: G' assay (10 uM PL peptide), results of TABLE 7 and TABLE 12; conditions: PDZ TIAM-2, PDZ Domain 1
T1 construct: made in house; host or cells: E. coli (DH5alpha, BL21 or JM109)
How it was run: (§1)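 Biotinylated PL peptides at 10 uM (vs 20 uM in G^0 assay) bound to GST-PDZ fusions; PDZ protein at 5 ug/ml unless another concentration listed. Bound peptide read as A450 nm, classified 0–5 (0 = A450 0; 5 = A450 >4 repeated).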

Mint 1 (PDZ Domain 1, 2) = biological target: T2, Mint 1 (PDZ Domain 1, 2) (Homo sapiens, UniProt Q02410); assay: G' assay, TABLE 12; conditions: A450 nm class of biotinylated PL peptide bound; 0 in conc columns = peptide 10 uM, protein 5 ug/ml
T2 construct: When more than one PDZ domain was cloned, the DNA portion cloned represents the PDZ domains and the cDNA portion located between individual domains; made in house; host or cells: E. coli (DH5alpha, BL21 or JM109)
T2 sequence (Q02410 652-828 limits assumed): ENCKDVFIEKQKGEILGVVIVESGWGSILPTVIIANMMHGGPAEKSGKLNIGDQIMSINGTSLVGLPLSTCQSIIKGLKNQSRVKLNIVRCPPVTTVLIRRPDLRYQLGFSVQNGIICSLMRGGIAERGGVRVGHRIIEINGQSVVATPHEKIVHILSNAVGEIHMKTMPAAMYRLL
How it was run: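 PL peptide binding to PDZ domain protein, peptide at 10 uM; protein at 5 ug/ml unless another concentration is listed for Kd determination. Bound peptide read at A450 nm and binned into classes 0–5.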

TIP1 (PDZ Domain 1) = biological target: T3, TIP1 (PDZ Domain 1) (Homo sapiens, UniProt O14907); assay: G' assay and Kd titration, TABLE 12; conditions: A450 nm class of biotinylated PL peptide bound; 0 in conc columns = peptide 10 uM, protein 5 ug/ml
T3 construct: made in house; host or cells: E. coli (DH5alpha, BL21 or JM109)
Description: The third column labeled “Peptide Optimal Concentration” in the tables is a number reflective of the binding interaction between the PL protein and PDZ protein. […] The column labeled “Protein Optimal Concentration” refers to the protein concentration used to assay PL interaction (in ug/ml); a ‘0’ is indicative of 5 ug/ml protein concentration; any other value represents the concentration (in ug/ml) used to determine the dissociation constant for a given interaction.
Finally, the seventh column labeled “Classification” is another measure of the level of binding. In particular, it provides an absorbance value at 450 nm which indicates the amount of PL peptide bound to the PDZ protein. […]
For convenience, the assay conditions described in this section are referred to as the “G′ assay” and the “G″ assay,” with the specific conditions described in the preceding section on G assays being referred to as the “G^0 assay.” The “G′ assay” is identical to the “G^0 assay” except at step (2) the peptide concentration is 10 uM instead of 20 uM. […] Correspondingly, it slightly increases the certainty that detected interactions are of sufficient affinity and half-life to be of biological importance and useful therapeutic targets.

[2] = biological target: T4, PDZ protein (GST-PDZ fusion) (Homo sapiens, UniProt Q9NZW5); assay: G' assay (10 uM PL peptide), results of TABLE 7 and TABLE 12; conditions: PDZ P55T, PDZ Domain 1
T4 construct: made in house; host or cells: E. coli (DH5alpha, BL21 or JM109)
T4 sequence (Q9NZW5 1-540): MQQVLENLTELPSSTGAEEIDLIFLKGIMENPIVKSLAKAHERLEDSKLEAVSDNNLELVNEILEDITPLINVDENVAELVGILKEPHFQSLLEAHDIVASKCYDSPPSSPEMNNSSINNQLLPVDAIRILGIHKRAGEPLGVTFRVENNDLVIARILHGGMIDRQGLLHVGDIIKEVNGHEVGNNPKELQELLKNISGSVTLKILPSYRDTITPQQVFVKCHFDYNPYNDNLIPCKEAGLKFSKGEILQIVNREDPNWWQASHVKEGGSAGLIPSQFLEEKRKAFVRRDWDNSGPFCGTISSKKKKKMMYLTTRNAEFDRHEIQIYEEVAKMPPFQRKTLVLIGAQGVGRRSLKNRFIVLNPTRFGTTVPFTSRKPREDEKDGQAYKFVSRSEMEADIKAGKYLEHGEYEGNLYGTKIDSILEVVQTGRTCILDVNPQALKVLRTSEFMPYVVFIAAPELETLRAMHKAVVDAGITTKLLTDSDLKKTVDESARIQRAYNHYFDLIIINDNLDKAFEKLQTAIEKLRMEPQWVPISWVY
How it was run: as §1

[3] = biological target: T5, PDZ protein (GST-PDZ fusion) (Homo sapiens, UniProt Q8N3R9); assay: as above; conditions: PDZ FLJ 12615 (PALS-1), PDZ Domain 1
T5 construct: made in house; host or cells: E. coli (DH5alpha, BL21 or JM109)
How it was run: as §1

[4] = biological target: T6, PDZ protein (GST-PDZ fusion) (Homo sapiens, UniProt Q9Y566); assay: as above; conditions: PDZ SHANK1, PDZ Domain 1
T6 construct: made in house; host or cells: E. coli (DH5alpha, BL21 or JM109)
How it was run: as §1

[5] = biological target: T7, PDZ protein (GST-PDZ fusion) (Homo sapiens, UniProt Q8TDM6); assay: as above; conditions: PDZ DLG5, PDZ Domain 2
T7 construct: made in house; host or cells: E. coli (DH5alpha, BL21 or JM109)
How it was run: as §1

[6] = biological target: T8, PDZ protein (GST-PDZ fusion) (Homo sapiens, UniProt Q9H6Y5); assay: as above; conditions: PDZ FLJ21687, PDZ Domain 1
T8 construct: made in house; host or cells: E. coli (DH5alpha, BL21 or JM109)
T8 sequence (Q9H6Y5 1-334): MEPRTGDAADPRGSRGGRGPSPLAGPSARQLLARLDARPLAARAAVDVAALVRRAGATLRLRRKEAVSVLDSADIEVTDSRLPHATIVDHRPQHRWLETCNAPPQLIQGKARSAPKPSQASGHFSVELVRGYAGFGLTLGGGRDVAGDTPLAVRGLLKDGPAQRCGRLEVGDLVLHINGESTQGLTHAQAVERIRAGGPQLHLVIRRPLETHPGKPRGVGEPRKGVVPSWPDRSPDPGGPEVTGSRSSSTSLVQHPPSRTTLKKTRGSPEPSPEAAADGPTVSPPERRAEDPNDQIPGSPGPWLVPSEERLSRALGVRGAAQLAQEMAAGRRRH
How it was run: as §1

T3 sequence (O14907 14-116): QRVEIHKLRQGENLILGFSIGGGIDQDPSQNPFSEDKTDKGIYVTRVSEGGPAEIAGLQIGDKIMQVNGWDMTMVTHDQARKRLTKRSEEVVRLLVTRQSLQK
T7 sequence (Q8TDM6 whole entry, the tested form may be a part): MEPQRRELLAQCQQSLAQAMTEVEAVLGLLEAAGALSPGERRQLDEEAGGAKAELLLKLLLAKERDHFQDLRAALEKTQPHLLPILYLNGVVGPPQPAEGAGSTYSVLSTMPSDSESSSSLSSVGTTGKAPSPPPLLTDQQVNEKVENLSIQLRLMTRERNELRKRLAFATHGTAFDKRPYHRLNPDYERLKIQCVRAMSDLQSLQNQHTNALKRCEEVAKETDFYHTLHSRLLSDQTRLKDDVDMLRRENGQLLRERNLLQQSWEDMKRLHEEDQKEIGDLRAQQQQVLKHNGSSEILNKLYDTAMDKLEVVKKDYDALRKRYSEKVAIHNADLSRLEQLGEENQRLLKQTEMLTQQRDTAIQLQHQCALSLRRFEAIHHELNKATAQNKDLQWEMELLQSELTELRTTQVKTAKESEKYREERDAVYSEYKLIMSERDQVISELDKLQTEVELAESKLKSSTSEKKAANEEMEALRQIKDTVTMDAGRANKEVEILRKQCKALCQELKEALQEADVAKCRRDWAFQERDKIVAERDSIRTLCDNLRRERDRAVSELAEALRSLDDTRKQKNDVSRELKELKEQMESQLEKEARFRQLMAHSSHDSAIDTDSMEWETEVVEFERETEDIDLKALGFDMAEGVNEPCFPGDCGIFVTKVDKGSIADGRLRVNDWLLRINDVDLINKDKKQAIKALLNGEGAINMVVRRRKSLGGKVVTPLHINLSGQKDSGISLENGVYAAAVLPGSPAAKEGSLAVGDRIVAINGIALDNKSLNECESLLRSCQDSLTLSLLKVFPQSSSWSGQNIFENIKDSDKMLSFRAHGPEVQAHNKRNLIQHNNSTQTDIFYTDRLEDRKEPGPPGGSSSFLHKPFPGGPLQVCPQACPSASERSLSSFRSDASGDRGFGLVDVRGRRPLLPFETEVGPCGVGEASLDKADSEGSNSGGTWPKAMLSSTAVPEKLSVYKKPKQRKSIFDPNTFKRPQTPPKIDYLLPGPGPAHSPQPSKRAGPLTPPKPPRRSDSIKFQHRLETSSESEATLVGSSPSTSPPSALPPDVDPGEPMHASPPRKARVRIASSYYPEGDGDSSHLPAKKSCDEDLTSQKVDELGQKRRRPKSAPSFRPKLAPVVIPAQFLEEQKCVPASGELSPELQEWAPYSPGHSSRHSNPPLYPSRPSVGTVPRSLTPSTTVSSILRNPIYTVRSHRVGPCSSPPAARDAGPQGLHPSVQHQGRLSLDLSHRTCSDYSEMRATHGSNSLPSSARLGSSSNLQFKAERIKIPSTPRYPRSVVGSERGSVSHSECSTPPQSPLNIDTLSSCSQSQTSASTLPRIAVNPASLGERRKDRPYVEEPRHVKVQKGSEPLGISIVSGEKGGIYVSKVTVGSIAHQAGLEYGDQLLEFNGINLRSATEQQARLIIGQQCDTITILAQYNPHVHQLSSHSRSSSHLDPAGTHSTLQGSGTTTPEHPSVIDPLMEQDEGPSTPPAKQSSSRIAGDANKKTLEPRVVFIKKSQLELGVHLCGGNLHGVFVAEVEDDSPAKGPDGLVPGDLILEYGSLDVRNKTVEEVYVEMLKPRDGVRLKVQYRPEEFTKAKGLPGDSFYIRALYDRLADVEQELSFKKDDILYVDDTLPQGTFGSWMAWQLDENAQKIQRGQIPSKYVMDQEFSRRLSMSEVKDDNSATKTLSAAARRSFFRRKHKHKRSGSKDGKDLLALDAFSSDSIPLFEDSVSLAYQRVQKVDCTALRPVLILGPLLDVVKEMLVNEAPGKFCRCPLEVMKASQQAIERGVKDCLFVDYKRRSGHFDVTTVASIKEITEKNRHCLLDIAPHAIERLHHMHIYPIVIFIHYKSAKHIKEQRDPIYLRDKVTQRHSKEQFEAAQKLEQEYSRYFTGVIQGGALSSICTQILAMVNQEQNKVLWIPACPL
T1 sequence (Q8IVF5 whole entry, the tested form may be a part): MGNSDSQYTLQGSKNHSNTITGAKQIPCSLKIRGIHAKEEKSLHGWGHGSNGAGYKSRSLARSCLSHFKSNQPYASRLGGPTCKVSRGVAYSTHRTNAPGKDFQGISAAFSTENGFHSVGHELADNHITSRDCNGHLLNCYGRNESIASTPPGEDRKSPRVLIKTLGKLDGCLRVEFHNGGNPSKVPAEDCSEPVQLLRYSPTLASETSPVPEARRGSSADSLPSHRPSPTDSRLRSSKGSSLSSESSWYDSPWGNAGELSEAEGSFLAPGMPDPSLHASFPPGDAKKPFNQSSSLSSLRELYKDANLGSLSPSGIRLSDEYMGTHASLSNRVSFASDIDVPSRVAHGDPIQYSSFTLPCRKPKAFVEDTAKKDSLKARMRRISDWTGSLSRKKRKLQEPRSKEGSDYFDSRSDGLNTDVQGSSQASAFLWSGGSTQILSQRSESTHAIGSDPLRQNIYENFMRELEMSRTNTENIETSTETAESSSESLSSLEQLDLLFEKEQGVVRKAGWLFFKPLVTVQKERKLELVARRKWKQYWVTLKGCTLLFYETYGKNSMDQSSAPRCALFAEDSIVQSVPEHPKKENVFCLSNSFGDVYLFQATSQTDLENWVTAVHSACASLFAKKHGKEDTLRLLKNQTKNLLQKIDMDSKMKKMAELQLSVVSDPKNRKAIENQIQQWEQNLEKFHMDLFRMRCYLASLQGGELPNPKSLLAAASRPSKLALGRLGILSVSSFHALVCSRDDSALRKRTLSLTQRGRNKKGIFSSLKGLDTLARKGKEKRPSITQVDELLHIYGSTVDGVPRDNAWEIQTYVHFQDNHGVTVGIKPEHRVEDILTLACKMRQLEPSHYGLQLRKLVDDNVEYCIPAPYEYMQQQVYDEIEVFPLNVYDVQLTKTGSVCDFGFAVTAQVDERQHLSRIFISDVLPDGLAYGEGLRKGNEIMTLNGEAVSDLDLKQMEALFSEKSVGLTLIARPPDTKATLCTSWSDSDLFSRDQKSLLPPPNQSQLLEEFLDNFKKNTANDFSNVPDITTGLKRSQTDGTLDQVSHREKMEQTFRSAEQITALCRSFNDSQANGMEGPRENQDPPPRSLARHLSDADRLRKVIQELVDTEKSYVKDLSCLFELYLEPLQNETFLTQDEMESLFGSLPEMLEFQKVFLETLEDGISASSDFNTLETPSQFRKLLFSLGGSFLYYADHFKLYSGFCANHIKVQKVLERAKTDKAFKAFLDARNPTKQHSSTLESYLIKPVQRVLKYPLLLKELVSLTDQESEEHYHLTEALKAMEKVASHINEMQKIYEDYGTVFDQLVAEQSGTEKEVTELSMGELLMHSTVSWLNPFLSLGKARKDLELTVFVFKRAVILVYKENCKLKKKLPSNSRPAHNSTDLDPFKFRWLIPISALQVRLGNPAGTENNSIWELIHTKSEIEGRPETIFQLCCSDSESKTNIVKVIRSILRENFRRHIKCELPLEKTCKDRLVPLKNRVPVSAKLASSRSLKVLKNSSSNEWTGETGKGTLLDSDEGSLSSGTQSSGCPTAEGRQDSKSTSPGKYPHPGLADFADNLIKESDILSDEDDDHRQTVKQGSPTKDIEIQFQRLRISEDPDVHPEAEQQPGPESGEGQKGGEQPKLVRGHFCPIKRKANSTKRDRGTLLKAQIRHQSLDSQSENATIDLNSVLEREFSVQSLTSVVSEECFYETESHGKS
T5 sequence (Q8N3R9 whole entry, the tested form may be a part): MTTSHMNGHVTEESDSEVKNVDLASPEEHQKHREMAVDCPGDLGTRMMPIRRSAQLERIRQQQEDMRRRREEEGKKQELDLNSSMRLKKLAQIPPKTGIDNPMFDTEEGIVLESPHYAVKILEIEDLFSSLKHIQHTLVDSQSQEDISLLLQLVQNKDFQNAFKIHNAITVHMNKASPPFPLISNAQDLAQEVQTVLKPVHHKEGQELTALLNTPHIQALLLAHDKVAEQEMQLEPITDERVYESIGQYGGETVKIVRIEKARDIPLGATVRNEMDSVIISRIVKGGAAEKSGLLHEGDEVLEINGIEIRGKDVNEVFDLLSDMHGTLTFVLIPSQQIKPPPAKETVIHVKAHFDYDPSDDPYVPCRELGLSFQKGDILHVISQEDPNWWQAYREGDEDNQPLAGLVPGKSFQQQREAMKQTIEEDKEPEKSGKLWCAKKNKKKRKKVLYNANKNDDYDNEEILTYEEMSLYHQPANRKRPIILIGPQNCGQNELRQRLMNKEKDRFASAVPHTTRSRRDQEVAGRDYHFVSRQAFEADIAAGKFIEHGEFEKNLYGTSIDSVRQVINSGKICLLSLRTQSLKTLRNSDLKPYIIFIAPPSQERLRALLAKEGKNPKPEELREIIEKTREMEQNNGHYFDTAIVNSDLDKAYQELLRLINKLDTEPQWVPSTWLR

## ELLQFCRTPNPALKNGQYWV (Biotin-ELLQFCRTPNPALKNGQYWV)
[1]
  Classification: 3 (A450 nm 2-3)

## CC(C)C[C@H](NC(=O)[C@H](C)NC(=O)[C@@H](NC(=O)[C@@H](NC(=O)[C@H](Cc1c[nH]cn1)NC(=O)[C@H](CC(C)C)NC(=O)CNC(=O)[C@H](CCC(N)=O)NC(=O)CNC(=O)CNC(=O)[C@H](C)NC(=O)[C@H](C)NC(=O)[C@H](CCCNC(=N)N)NC(=O)[C@H](C)NC(=O)[C@H](CO)NC(=O)[C@H](CC(=O)O)NC(=O)[C@H](CC(=O)O)NC(=O)[C@H](Cc1c[nH]c2ccccc12)NC(=O)[C@H](C)NC(=O)CCCC[C@@H]1SC[C@@H]2NC(=O)N[C@@H]21)C(C)C)[C@@H](C)O)C(=O)O [LPAP] (Biotin-AWDDSARAAGGQGLHVTAL-OH; C-terminus assumed)
Mint 1 (PDZ Domain 1, 2)
  Classification: 1 (A450 nm 0-1)
TIP1 (PDZ Domain 1)
  Classification: 5 (A450 nm of 4 more than 2× repeated)

## KTMPAAMFRLLTGQETPLYI (Biotin-KTMPAAMFRLLTGQETPLYI) [MINT-2]
[2]
  Classification: 1 (A450 nm 0-1)

## CC[C@H](C)[C@H](NC(=O)[C@H](CCC(N)=O)NC(=O)CCCC[C@@H]1SC[C@@H]2NC(=O)N[C@@H]21)C(=O)N[C@@H](CO)C(=O)N1CCC[C@H]1C(=O)NCC(=O)NCC(=O)N[C@@H](CC(C)C)C(=O)N[C@@H](CCC(=O)O)C(=O)N1CCC[C@H]1C(=O)N1CCC[C@H]1C(=O)N[C@@H](CO)C(=O)N[C@@H](CCC(=O)O)C(=O)N[C@@H](CCCCN)C(=O)N[C@@H](Cc1c[nH]cn1)C(=O)N[C@@H](Cc1ccccc1)C(=O)N[C@@H](CCCNC(=N)N)C(=O)N[C@@H](CCC(=O)O)C(=O)N[C@H](C(=O)N[C@@H](CCC(=O)O)C(=O)N[C@H](C(=O)O)C(C)C)[C@@H](C)O [Tax]
TIP1 (PDZ Domain 1)
  Classification: 5 (A450 nm of 4 more than 2× repeated)

## CSCC[C@H](NC(=O)[C@H](C)NC(=O)[C@H](CCCNC(=N)N)NC(=O)CNC(=O)[C@@H](NC(=O)[C@H](Cc1c[nH]c2ccccc12)NC(=O)[C@H](CCCNC(=N)N)NC(=O)CNC(=O)CCCC[C@@H]1SC[C@@H]2NC(=O)N[C@@H]21)[C@@H](C)O)C(=O)N[C@@H](CO)C(=O)N[C@@H](C)C(=O)N[C@@H](Cc1c[nH]c2ccccc12)C(=O)N[C@@H](CCCCN)C(=O)N1CCC[C@H]1C(=O)N[C@H](C(=O)N[C@@H](CCCNC(=N)N)C(=O)N[C@@H](CCCNC(=N)N)C(=O)N[C@@H](CCC(=O)O)C(=O)N[C@H](C(=O)N[C@@H](CCC(=O)O)C(=O)N[C@H](C(=O)O)C(C)C)[C@@H](C)O)[C@@H](C)O [HPV E6 #35 (modified)] (Biotin-GRWTGRAMSAWKPTRRETEV-OH; C-terminus assumed)
[3]
  Classification: 1 (A450 nm 0-1)

## CC[C@H](C)[C@H](NC(=O)[C@H](CC(=O)O)NC(=O)[C@H](CCC(=O)O)NC(=O)[C@H](CCCNC(=N)N)NC(=O)[C@@H](NC(=O)CCCC[C@@H]1SC[C@@H]2NC(=O)N[C@@H]21)[C@@H](C)O)C(=O)N[C@@H](Cc1ccc(O)cc1)C(=O)N[C@H](C(=O)N[C@@H](CC(N)=O)C(=O)N[C@@H](Cc1ccc(O)cc1)C(=O)N1CCC[C@H]1C(=O)N[C@H](C(=O)N[C@@H](Cc1ccccc1)C(=O)N[C@@H](CO)C(=O)N[C@@H](CCCNC(=N)N)C(=O)N[C@@H](CCCNC(=N)N)C(=O)N1CCC[C@H]1C(=O)N[C@@H](CCCCN)C(=O)N[C@H](C(=O)N[C@@H](CCCNC(=N)N)C(=O)N[C@H](C(=O)O)C(C)C)[C@@H](C)O)[C@@H](C)O)C(C)C [DNAM-1] (Biotin-TREDIYVNYPTFSRRPKTRV-OH; C-terminus assumed)
[4]
  Classification: 5 (A450 nm of 4 more than 2× repeated)

## A2AA_HUMAN (modified) (Biotin-HDFRRAFKKILARGDRKRIV; not fully specified)
[5]
  Classification: 1 (A450 nm 0-1)
[6]
  Classification: 1 (A450 nm 0-1)
